Experimental data: publication PMC6403188, “Species-Specific Structural Requirements of Alpha-Branched Trehalose Diester Mincle Agonists” (Frontiers in Immunology, 2019)

Assays:
Assay type in all cases: cell-based
human Mincle = biological target: T1, human Mincle (Homo sapiens, UniProt Q9ULY5); test: HEK cells expressing human Mincle with NF-κB-driven SEAP reporter; settings: plate-coated compound, 24 h
T1 construct: host or cells: HEK (HEK-Blue) cells with NF-κB-driven SEAP reporter
T1 sequence (Q9ULY5 1-219): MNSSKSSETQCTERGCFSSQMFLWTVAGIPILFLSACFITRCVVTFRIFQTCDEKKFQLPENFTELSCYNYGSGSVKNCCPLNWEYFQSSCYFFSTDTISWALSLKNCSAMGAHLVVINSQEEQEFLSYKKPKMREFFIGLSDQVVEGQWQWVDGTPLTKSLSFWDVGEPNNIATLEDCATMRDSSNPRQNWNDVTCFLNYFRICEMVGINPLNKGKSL
Method: (§1) Human and mouse Mincle expressing HEK cells were obtained from Invivogen (San Diego, CA). Cells were cultured according to the manufactures instructions in DMEM with 10% FBS, 50 U/ml penicillin, […] streptomycin, […] Normocin, 2 mM L-glutamine, 30 μg/ml blasticidin, 1 μg/ml puromycin and 1x HEK-Blue™ CLR Selection. For assay, indicated compounds were serially diluted in diluent (50%IPA/50% isooctane), 20 μl of a 10x final concentration were applied to the bottom of a 96-well tissue culture plate and the solvent was evaporated for >1 h in a biosafety hood. HEK cells were applied to the plates at a density of 3 × 10^5 cells/well and incubated for 18–24 h at 37°C. Cell supernatants were harvested and analyzed via the manufacturer's instructions using Hek-Blue^TM Detection. SEAP activity was assessed by reading the optical density (OD) at 620–655 nm with a microplate reader; data are expressed as the fold change in OD over vehicle treated cells.
(§2) To investigate the capacity of these molecules to bind to and activate the Mincle receptor, we used human embryonic kidney (HEK) cells expressing the human or mouse Mincle receptor along with an NF-κB-driven secreted embryonic alkaline phosphatase (SEAP) reporter. Many of the αTDE compounds were able to induce production of SEAP in a dose dependent manner (Figure 2). HEK null cells (HEK cells containing the NF-kB reporter without Mincle receptor) were used as a negative controls to confirm the receptor specificity of the compounds in HEK cells expressing human or mouse Mincle reporter (Supplemental Figure 4). […] The relative activity of TDM and TDB in the human and mouse HEK cells is consistent with the results reported by others ([20]). […] This synthetic version is a shorter chain version of the lipid-derived one reported to be “human-specific” ([28]).
(§3) Figure 2 Activation of human or mouse Mincle in response to synthetic αTDE compounds. The indicated compounds were dissolved in 50% isopropanol/isooctane, serially diluted in vehicle and then dried to the bottom of a tissue culture plate. HEK cells transfected with human (A–C) or mouse (D–F) Mincle and an NF-κB-driven SEAP reporter were incubated with the compounds for 24 h followed by assessment of the supernatants for SEAP levels. Data are represented as fold change in OD650 over vehicle treated cells. Graphs are mean values from three independent experiments ± SEM. Table in (G) represents the average calculated EC50 and average max SEAP value (± SD, n = 3) for each compound in each cell line. […]

[1] = test system: Hek Blue human or mouse Mincle-expressing cells; settings: top concentrations, 24 h; compared with vehicle only-treated cells
mouse Mincle = biological target: T2, mouse Mincle (Mus musculus, UniProt Q9R0Q8); test: HEK cells expressing mouse Mincle with NF-κB-driven SEAP reporter
T2 construct: host or cells: HEK (HEK-Blue) cells with NF-κB-driven SEAP reporter
T2 sequence (Q9R0Q8 1-214): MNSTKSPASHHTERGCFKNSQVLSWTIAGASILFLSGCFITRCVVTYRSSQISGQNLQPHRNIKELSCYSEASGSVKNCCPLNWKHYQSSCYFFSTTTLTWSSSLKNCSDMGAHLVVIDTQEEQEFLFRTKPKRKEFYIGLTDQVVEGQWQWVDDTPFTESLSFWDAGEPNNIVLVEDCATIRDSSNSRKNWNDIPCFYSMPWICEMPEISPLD
Method: as §1, §2, §3

**Q.** Which results are given for `CCCCCCCCCCCCCCCCCCCCCC(=O)OC[C@H]1O[C@H](O[C@H]2O[C@H](COC(=O)CCCCCCCCCCCCCCCCCCCCC)[C@@H](O)[C@H](O)[C@H]2O)[C@H](O)[C@@H](O)[C@@H]1O` [TDB, trehalose dibehenate, reference compound]?
**A.** SEAP induction / activation of human Mincle-expressing HEK cells (in words) (human Mincle): robust ability to activate; Cell viability of Mincle HEK cells [1]: marked decreases in viability; Relative activity in mouse vs. human Mincle HEK cells (mouse Mincle; comparison of mouse and human Mincle receptor transfected HEK cells): more potent in the mouse vs. the human; SEAP induction / activation of mouse Mincle-expressing HEK cells (in words) (mouse Mincle; plate-coated compound, 24 h): robust ability to activate
